Consider one molecule from patent US20220105096A1, “INHIBITORS OF HUMAN IMMUNODEFICIENCY VIRUS REPLICATION” (ViiV HEALTHCARE UK (NO.5) LIMITED, priority 2019, published 2022).

One series concerns recombinant NL4-3 virus. The experiment in a line: Antiviral potency in MT-2 cells infected with recombinant NL4-3 Renilla luciferase virus. The format is cell-based, HIV. The conditions noted are these: Human immunodeficiency virus 1, NL43, MT2. As to the method:
MT-2 cells, 293T cells and the proviral DNA clone of NL4-3 virus were obtained from the NIH AIDS Research and Reference Reagent Program. MT-2 cells were propagated in RPMI 1640 media supplemented with 10% heat inactivated fetal bovine serum (FBS), […]. The 293T cells were propagated in DMEM media supplemented with 10% heat inactivated FBS, […] penicillin G and […] streptomycin. A recombinant NL4-3 proviral clone, in which a section of the nef gene was replaced with the Renilla luciferase gene, was used to make the reference virus used in these studies. The recombinant virus was prepared through transfection of the recombinant NL4-3 proviral clone into 293T cells using Transit-293 Transfection Reagent from Mirus Bio LLC (Madison, Wis.). Supernatant was harvested after 2-3 days and the amount of virus present was titered in MT-2 cells using luciferase enzyme activity as a marker by measuring luciferase enzyme activity. Luciferase was quantitated using the EnduRen Live Cell Substrate from Promega (Madison, Wis.). Antiviral activities of compounds toward the recombinant virus were quantified by measuring luciferase activity in MT-2 cells infected for 4-5 days with the recombinant virus in the presence of serial dilutions of the compound. […]

Series [1] relates to primary human hepatocytes. The experiment in a line: Cytotoxicity assessed in parallel in the CYP induction assay. The conditions noted are these: concentrations tested up to 30 μM, 48 hours. The format is cell-based. Here is the method:
Compounds were tested in a CYP induction assay using inducible cryopreserved human primary hepatocytes from three donors to determine the potential to cause induction (as measured by an increase in mRNA transcription) of CYP2B6. Test compounds (0.12 to 30 μM final concentration) were incubated for 48 hours with primary human hepatocytes naturally expressing all nuclear receptors involved in regulation of expression levels of various CYP enzymes. Fresh solutions of test compounds and controls were diluted in assay media and added every 24 hours for two consecutive days, with a final DMSO concentration of 0.1%. At the end of the incubation, the integrity of cell monolayers, cell density and viability were evaluated to assess cytotoxicity effects. […] It was then used in reverse transcription polymerase chain reactions (RT-PCR) to quantify the amount of specific mRNA species encoding human CYP3A4, CYP2B6, and CYP1A2 genes.
The induction potential of test compounds and controls was compared to known CYP2B6 inducer Phenobarbital (1000 μM). The results of this assay are expressed as fold induction. Fold induction was calculated as a ratio of mRNA level in cells treated with test compound over that in cells treated with DMSO (solvent control) alone, the basal mRNA level, and thus represents the induction potential of the test compound. […]

The next series deals with CYP2B6. The experiment in a line: Cytochrome P450 (CYP2B6) induction in cryopreserved human hepatocytes. In kind it is cell-based. The settings on record: hepatocytes from three individual donors, 0.12 to 30 μM, 48 hours. Here is the method: Following the guidance of the FDA (“In Vitro Metabolism- and Transporter-Mediated Drug-Drug Interaction Studies Guidance for Industry”), the potential of Example 1 and Example 60.2 to induce CYP2B6 expression was tested using hepatocytes from the same three individual donors (rather than pooled donors), and changes in enzyme mRNA levels were evaluated using the “fold-change method”. In this test a fold-change in mRNA levels less than 2-fold is considered a negative finding, while a change ≥2-fold is considered a positive finding.
Compounds were tested in a CYP induction assay using inducible cryopreserved human primary hepatocytes from three donors to determine the potential to cause induction (as measured by an increase in mRNA transcription) of CYP2B6. […] At the end of the incubation, the integrity of cell monolayers, cell density and viability were evaluated to assess cytotoxicity effects. […] It was then used in reverse transcription polymerase chain reactions (RT-PCR) to quantify the amount of specific mRNA species encoding human CYP3A4, CYP2B6, and CYP1A2 genes.
The induction potential of test compounds and controls was compared to known CYP2B6 inducer Phenobarbital (1000 μM). The results of this assay are expressed as fold induction. […] The cytotoxicity was also assessed in parallel to avoid false positive CYP induction results due to cytotoxicity. […]

A short description of series [2]: Pharmacokinetic parameters in vivo, monkey. Set-up: species or system Cynomolgus monkeys. Here is the method: (§1) PK was investigated in male CD1 mice, Wistar Han Rats, Cynomolgus monkeys, and Beagle Dogs. Two groups of animals (N=3 per group) received test compound either as an intravenous (IV) dose (1 mg/kg) or by oral gavage (5 mg/kg solution and suspension). Drug was formulated in 90% PEG 400, 10% ethanol for IV administration and in 90% PEG400, 5% ethanol for PO administration. Blood samples were collected at 0.167, 0.25, 0.5, 0.75, 1, 2, 3, 5, 7, 24, 48, 72 and 96 h post dose for IV; 0.25, 0.5, 0.75, 1, 2, 3, 5, 7, 24, 48, 72 and 96 h post dose for oral. Blood samples were collected into K3EDTA tubes and centrifuged at 1500 to 2000×g to obtain plasma. Plasma samples were stored at −20° C. until analysis by LC-MS/MS. All […] samples were injected on an Exion LC 4500 Triple Quad™ LC-MS/MS system. The analytical column used was a Phenomenex C18 (C18, 4.6 mm×50 mm, 5 μm) maintained at room temperature. Mobile Phase A consisted of 0.1% (v/v) formic acid in MilliQ water. Mobile Phase B consisted of 100% methanol. The flow rate was 1 mL/min. […] All LC-MS/MS analysis parameters are captured electronically in the raw data files. The PK parameters were obtained by non-compartmental analysis of plasma concentration vs time data (Phoenix WinNonlin v8). The peak concentration (Cmax) and time for Cmax (Tmax) were recorded directly from experimental observations. The area under the curve from time zero to the last sampling time [AUC0-T] and the area under the curve from time zero to infinity [AUCINF] were calculated using a combination of linear and log trapezoidal summations. The total plasma clearance (CLTp), steady-state volume of distribution (Vss), apparent elimination half-life (T-HALF), and mean residence time (MRT) were estimated after IV administration. Estimations of AUC and T-HALF were made using a minimum of three timepoints with quantifiable concentrations. The absolute oral bioavailability (F) was estimated as the ratio of dose-normalized AUC values following oral and IV doses.

Series [3] is described as follows: Pharmacokinetic parameters in vivo, rat. Set-up: species or system Wistar Han Rats. The conditions noted are these: Wistar Han, plasma. Here is the method: as §1
The mark [4] stands for this setting: cynomolgus monkey, plasma, Monkey, IV 1 mg/kg.

Consider `Cn1nc(NS(C)(=O)=O)c2c(Cl)ccc(-n3c([C@H](Cc4cc(F)cc(F)c4)NC(=O)Cn4nc(C(F)F)c5c4C(F)(F)[C@@H]4C[C@H]54)nc4nc(OCCC(C)(F)F)ccc4c3=O)c21` (atropisomer, axis not shown; (P)) [Example 1, N—((S)-1-((3P)-3-(4-chloro-1-methyl-3-(methylsulfonamido)-1H-indazol-7-yl)-7-(3,3-difluorobutoxy)-4-oxo-3,4-dihydropyrido[2,3-d]pyrimidin-2-yl)-2-(3,5-difluorophenyl)ethyl)-2-((3bS,4aR)-3-(difluoromethyl)-5,5-difluoro-3b,4,4a,5-tetrahydro-1H-cyclopropa[3,4]cyclopenta[1,2-c]pyrazol-1-yl)acetamide], for which the EC50 with recombinant NL4-3 virus was determined as 0.019 ± 0.006 nM. Also, the “cytotoxicity in CYP induction assay” value in series [1] is given as “No cytotoxicity was observed”. Also, the “CYP2B6 induction finding (mRNA fold-change method)” value in the series on CYP2B6 is “negative finding (a fold-change in mRNA levels less than 2-fold is considered a negative finding)”. The results for the clearance in series [2] (setting [4]) and in series [3] (IV 1 mg/kg) were 8.8 mL/min/kg and 3.6 mL/min/kg, respectively. For the same molecule, the figures for the half-life in series [2] (setting [4]) and in series [3] (IV 1 mg/kg) were 252 min and 612 min, respectively. The Vd in series [2] (cynomolgus monkey, plasma, Monkey, IV 1 mg/kg, read-out: Vss) is 1.73 L/kg; in series [3] (IV 1 mg/kg, read-out: Vss), 1.76 L/kg. In addition, the bioavailability stood at 7.92% in series [2] (cynomolgus monkey, plasma, Monkey, oral gavage 5 mg/kg solution vs IV 1 mg/kg) and 57.5% in series [3] (oral gavage 5 mg/kg solution vs IV 1 mg/kg). Also, the “half-life in circulation higher than Example 60.2” value in series [2] (monkey) is listed as “three-fold”. Also, the “clearance improved relative to Example 60.2” value in series [2] (monkey, IV) came out at 2.5 fold.

The term EC50 denotes the concentration needed to bring the measured effect to its halfway point. For orientation: clearance means the rate of elimination divided by the concentration. A word on the half-life: it is the time in which the quantity being followed falls by half. The bioavailability is dose-corrected exposure relative to a reference, in per cent.
